Measurements published in patent US20120082684A1, “DIAGNOSIS AND TREATMENT OF CELL PROLIFERATION AND DIFFERENTIATION DISORDERS BASED ON THE FMN2 GENE” (UNIVERSITY COURT OF THE UNIVERSITY OF DUNDEE, priority 2009, published 2012).

Assays:
NARF2 cells [1] = experiment: siRNA knock-down in NARF2 cells, protein levels by blot (FIG. 10); assay type: cell-based, human; conditions: 5 nM siRNA, 48 hours, with or without 24 hours IPTG
Description: FIG. 10. siRNA approach for FMN2. NARF2 cells were treated with Control, DNA-PK, or FMN2 siRNA and harvested 48 hours with or without 24 hours IPTG induction.
siRNA duplex oligonucleotides were synthesised by MWG and transfected using Interferin (Polyplus) as per manufacturers instruction. In brief, cells were plated the day before transfection at the concentration of 2×10^5 cells per well in 6 well plates. The following day, cells were transfected with the final concentration of 5 nM of siRNA oligonucleotides in fresh media, final volume of 2.2 ml. Cells were incubated for additional 48 hours prior to harvesting. IPTG was added for 24 hours unless otherwise stated. siRNA sequences were described here (Control: CAGUCGCGUUUGCGACUGG, FMN2-GUAUACCAGGUCUCCUCAA). MG132 was purchased from Merck Chemicals and used at the final concentration of 50 μM.
To analyse the function of the FMN2 protein in cells, we designed five siRNAs to suppress FMN2 expression. […] (FIG. 10a). […] In contrast, siRNA knock-down of DNA-PK causes a decrease in the levels of both puma and p21 (FIG. 10b).
(§1) siRNA experiments. siRNA duplex oligo ribonucleotides were synthesised by MWG and transfected using Interferin (Polyplus) as per manufacturers instruction. In brief, cells were plated the day before transfection at the concentration of 2×10^5 cells per well in 6 well plates. The following day, cells were transfected with the final concentration of 5 nM of siRNA oligoribonucleotides in fresh media, final volume of 2.2 ml. Cells were incubated for a further 48 hours prior to harvesting. IPTG was added for 24 hours unless otherwise stated. siRNA sequences are described here (Control: 5′-CAGUCGCGUUUGCGACUGG-3′, FMN2-5′-GUAUACCAGGUCUCCUCAA-3′, PA28γ-5′-GAAUCAAUAUGUCACUCUA-3′, Skp2-5′-ACUCAAGUCCAGCCAUAAG-3′).).

NARF2 cells [2] = experiment: Rescue of FMN2 depletion by co-transfection of siRNAs, Western blot (FIG. 14); assay type: cell-based, human; conditions: co-transfection of both PA28γ siRNA and Skp2 siRNA with FMN2 siRNA, with/without p14ARF induction
Description: as §1
FIG. 14. […] Detection of protein levels for endogenous FMN2, Skp2, PA28G, p21, p14ARF and Actin following transfection of NARF2 cells using either siRNAs for FMN2 (see FIG. 15A for location of siRNA target sequence), PA28γ, Skp2 and control (Control) with/without p14ARF induction (+/blank). An equivalent amount of NARF2 extract was loaded for each lane and the proteins separated by SDS PAGE, electroblotted and probed both with a monoclonal anti-PA28γ and polyclonal anti-FMN2, anti-Skp2, anti-p21, anti-p14ARF and with anti-Actin as a loading control.

Substance | FMN2 expression after siRNA (NARF2 cells [1]) | effect on Hdm2 (NARF2 cells [1]) | effect on p53 (NARF2 cells [1]) | p21 level (NARF2 cells [1]) | puma level (NARF2 cells [1]) | rescue of p21 inactivation following FMN2 depletion (NARF2 cells [2])
5′-GUAUACCAGGUCUCCUCAA-3′ [FMN2 siRNA] | successful in suppressing FMN2 expression | didn't see any effect | didn't see any effect | severely reduced | does not affect puma levels | 
5′-ACUCAAGUCCAGCCAUAAG-3′ [Skp2 siRNA] |  |  |  |  |  | partially rescued
5′-GAAUCAAUAUGUCACUCUA-3′ [PA28γ siRNA] |  |  |  |  |  | partially rescued
